The assay deals with Lysine-specific histone demethylase 1A (Homo sapiens, UniProt O60341). Briefly: Inhibition of human LSD1 assessed as reduction in H2O2 production using H3K4me2 (1 to 20 residues) peptide as substrate preincubated for 10 mins followed by substrate addition measured after 30 mins in presence of DTT by peroxidase coupled enzyme assay.

Broadly, the Ki is the dissociation constant of the complex between target and ligand, obtained from inhibition or displacement. For `CC(C)C[C@H](NC(=O)[C@H](Cc1ccccc1)NC(=O)[C@H](CO)NC(=O)[C@H](CCCNC(=N)N)NC(=O)[C@@H]1CCCN1C(=O)CO)C(=O)N[C@H](C(=O)N[C@@H](CCCNC(=N)N)C(=O)N[C@@H](CCCCN)C(=O)N1CCC[C@H]1C(=O)N[C@@H](CCCCNC(=O)CO)C(N)=O)C(C)C`, the inhibitory constant (Ki) stood at 190 µM.

These data come from ChEMBL document CHEMBL3875223, “Activation of lysine-specific demethylase 1 inhibitor peptide by redox-controlled cleavage of a traceless linker” (Bioorg Med Chem, 2017).
